In US20240190828A1, “Small Molecule Inhibitors of PBRM1-BD2” (The Medical College of Wisconsin, Inc., priority 2021, published 2024):

Experiments:
[1] = molecular target: BRD2-BD2 (Homo sapiens (Human), UniProt P25440); test: DSF selectivity profiling; assay type: binding
Description: (§1) Differential Scanning Fluorimetry (DSF). Bromodomain DSF Tm assays were performed using an Mx3005P (Stratagene) PCR detection system and low profile 96-well PCR plates (UltraFlux, Flat Top, SSI 3400-00S). […] The temperature was raised by 1° C./min from 25-95° C., and fluorescence readings were taken at each interval. Melting curves were analyzed using our online interactive fitting tool for thermofluor experiments (https://dsf-analysis.herokuapp.com/DSF-analysis) and plotted using GraphPad Prism.

[2] = molecular target: BRD3-BD2 (Homo sapiens (Human), UniProt Q15059); test: DSF selectivity profiling; assay type: binding
Description: as §1

[3] = molecular target: BRD3-BD1 (Homo sapiens (Human), UniProt Q15059); test: DSF selectivity profiling; assay type: binding
Description: as §1

[4] = molecular target: p300 (Homo sapiens (Human), UniProt Q09472); test: DSF selectivity profiling; assay type: binding
Description: as §1

[5] = molecular target: CREBBP (Homo sapiens (Human), UniProt Q92793); test: DSF selectivity profiling; assay type: binding
Description: as §1

[6] = molecular target: ASH1L (Homo sapiens (Human), UniProt Q9NR48); test: DSF selectivity profiling; assay type: binding
Description: as §1

[7] = molecular target: BRDT-BD1 (Homo sapiens (Human), UniProt Q58F21); test: DSF selectivity profiling; assay type: binding
Description: as §1

[8] = molecular target: BRD4-BD2 (Homo sapiens (Human), UniProt O60885); test: DSF selectivity profiling; assay type: binding
Description: as §1

[9] = molecular target: PCAF (Homo sapiens (Human), UniProt Q92831); test: DSF selectivity profiling; assay type: binding
Description: as §1

[10] = molecular target: BRD7 (Homo sapiens (Human), UniProt Q9NPI1); test: DSF selectivity profiling; assay type: binding
Description: as §1

[11] = molecular target: T1, SMARCA4 (Homo sapiens (Human), UniProt P51532); test: DSF selectivity profiling; assay type: binding
Description: as §1

[12] = molecular target: BRD4-BD1 (Homo sapiens (Human), UniProt O60885); test: DSF selectivity profiling; assay type: binding
Description: as §1

[13] = molecular target: TRIM33A (Homo sapiens (Human), UniProt Q9UPN9); test: DSF selectivity profiling; assay type: binding
Description: as §1

[14] = molecular target: CECR2 (Homo sapiens (Human), UniProt Q9BXF3); test: DSF selectivity profiling; assay type: binding
Description: as §1

[15] = test system: other tested bromodomains; test: DSF selectivity panel of 22 bromodomains; assay type: binding, human; conditions: bromodomains other than PBRM1-BD2, -BD3, -BD5
Description: as §1

[16] = molecular target: T2, SMARCA2 (Homo sapiens (Human), UniProt P51531); test: Isothermal titration calorimetry (ITC); assay type: binding; conditions: NB = did not bind
Description: (§3) Binding affinities of inhibitors towards PBRM1-BD2, PBRM1-BD5, SMARCA2, SMARCA4, and ASH1L were determined using a VP-ITC instrument (MicroCal). […] Protein concentrations were determined via the method of Bradford.^1 The buffer used for all ITC experiments consisted of 50 mM HEPES (pH 7.5 at 20° C.), 500 mM NaCl, 5% v/v glycerol, and 1% v/v DMSO; except for experiments involving PBRM1-BD2 whose buffer consisted of 100 mM Na2PO4 (pH 7.5 at 20° C.), 100 mM NaCl, 5% v/v glycerol, and 1% v/v DMSO. Kd values were determined by least-squares fitting to the raw data using Origin (OriginLab).

[17] = molecular target: T1, SMARCA4; test: Isothermal titration calorimetry (ITC); assay type: binding; conditions: NB = did not bind
Description: as §3

[18] = molecular target: T2, SMARCA2; test: DSF selectivity profiling; assay type: binding
Description: as §1

[19] = test system: PC3 cells; test: Cell viability assay (CellTiter-Glo); assay type: cell-based, human; conditions: 10, 1 and 0.1 μM
Description: (§2) Cell Viability Assays. Cells were seeded in a 96-well plate and incubated for 12-24 h prior to initial treatment. The number of cells per well was chosen empirically based on cell growth rates (LNCaP-5,000 cells/well, PC3 and RWPE-1-3,000 cells per well, HEK293T-1,000 cells/well). Cells were treated with either DMSO control or serial dilutions of inhibitors and media with compound was refreshed every 48 h.

[20] = test system: HEK293T cells; test: Cell viability assay (CellTiter-Glo); assay type: cell-based, human; conditions: dose curve
Description: as §2

[21] = test system: RWPE-1 cells; test: Cell viability assay (CellTiter-Glo); assay type: cell-based, human; conditions: 10, 1 and 0.1 μM
Description: as §2

Sequence of BRD3-BD2 (Q15059 306-415): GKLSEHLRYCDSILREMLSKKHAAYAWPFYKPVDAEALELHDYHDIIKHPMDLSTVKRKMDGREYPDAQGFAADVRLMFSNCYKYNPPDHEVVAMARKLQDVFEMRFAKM
Sequence of BRD7 (Q9NPI1 131-235): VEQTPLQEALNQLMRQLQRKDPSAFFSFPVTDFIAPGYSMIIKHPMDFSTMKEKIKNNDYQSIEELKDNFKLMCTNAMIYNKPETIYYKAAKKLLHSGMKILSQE
Sequence of CECR2 (Q9BXF3 434-538): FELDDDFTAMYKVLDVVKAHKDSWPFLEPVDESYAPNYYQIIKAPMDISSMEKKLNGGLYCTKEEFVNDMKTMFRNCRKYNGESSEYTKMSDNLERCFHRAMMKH
Sequence of p300 (Q09472 1049-1156): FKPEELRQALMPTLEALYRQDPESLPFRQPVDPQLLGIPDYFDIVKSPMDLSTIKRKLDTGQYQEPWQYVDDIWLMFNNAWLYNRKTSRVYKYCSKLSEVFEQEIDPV
T2 sequence (P51531 1378-1506): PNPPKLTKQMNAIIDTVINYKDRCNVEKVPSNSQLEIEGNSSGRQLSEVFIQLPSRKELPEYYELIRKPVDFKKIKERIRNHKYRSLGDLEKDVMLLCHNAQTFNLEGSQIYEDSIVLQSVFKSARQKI
Sequence of BRD2-BD2 (P25440 344-453): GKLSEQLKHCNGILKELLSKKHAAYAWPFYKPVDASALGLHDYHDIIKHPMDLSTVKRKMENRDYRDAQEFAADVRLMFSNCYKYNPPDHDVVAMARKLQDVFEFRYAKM
Sequence of CREBBP (Q92793 1085-1192): as the sequence (Q09472 1049-1156) above, with S47N, I73V, Y93F, S98A counted along it
Sequence of TRIM33A (Q9UPN9 957-1080): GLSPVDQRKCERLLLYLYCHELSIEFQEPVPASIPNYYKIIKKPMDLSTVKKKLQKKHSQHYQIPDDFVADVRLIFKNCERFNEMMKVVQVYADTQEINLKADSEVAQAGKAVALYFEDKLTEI
Sequence of PCAF (Q92831 723-827): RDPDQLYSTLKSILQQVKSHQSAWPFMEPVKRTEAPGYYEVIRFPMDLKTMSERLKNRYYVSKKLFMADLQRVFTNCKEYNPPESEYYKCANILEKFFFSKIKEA
T1 sequence (P51532 1453-1564): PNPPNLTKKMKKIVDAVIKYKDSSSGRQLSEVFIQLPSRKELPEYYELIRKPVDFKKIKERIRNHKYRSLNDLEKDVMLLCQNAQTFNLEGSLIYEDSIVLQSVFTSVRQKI
Sequence of BRD3-BD1 (Q15059 34-140): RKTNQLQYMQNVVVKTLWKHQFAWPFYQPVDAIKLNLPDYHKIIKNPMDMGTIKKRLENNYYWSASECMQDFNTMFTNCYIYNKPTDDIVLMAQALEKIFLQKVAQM

## Cc1ccccc1C1NC(=O)c2c(Cl)cccc2N1 (stereo not shown) [Compound 15, 5-Chloro-2-(2-methylphenyl)-2,3-dihydroquinazolin-4(1H)-one]
[1]
  BRD2-BD2 ΔTm: 0.6 °C
[2]
  BRD3-BD2 ΔTm: 0.4 °C
[3]
  BRD3-BD1 ΔTm: 0.3 °C
[4]
  p300 ΔTm: 0.2 °C
[5]
  CREBBP ΔTm: 0.5 °C
[6]
  ASH1L ΔTm: −0.6 °C
[7]
  BRDT-BD1 ΔTm: −0.7 °C
[8]
  BRD4-BD2 ΔTm: −3.3 °C
[9]
  PCAF ΔTm: 0.5 °C
[10]
  BRD7 ΔTm: 0.2 °C
[11]
  SMARCA4 ΔTm: did not exhibit detectable thermal stabilization or binding affinity
[12]
  BRD4-BD1 ΔTm: 0.1 °C
[13]
  TRIM33A ΔTm: 0.8 °C
[14]
  CECR2 ΔTm: −0.5 °C
[15]
  thermal stabilization against other tested bromodomains: < 1 °C
[16]
  Kd SMARCA2: did not exhibit detectable thermal stabilization or binding affinity
[17]
  Kd SMARCA4: did not exhibit detectable thermal stabilization or binding affinity

## Cc1cccc(C2NC(=O)c3c(Cl)cccc3N2)c1C (stereo not shown) [Compound 25, 5-Chloro-2-(2,3-dimethylphenyl)-2,3-dihydroquinazolin-4(1H)-one]
[1]
  BRD2-BD2 ΔTm: 0.2 °C
[2]
  BRD3-BD2 ΔTm: 0.4 °C
[3]
  BRD3-BD1 ΔTm: 0.4 °C
[4]
  p300 ΔTm: 0.6 °C
[5]
  CREBBP ΔTm: 0.6 °C
[6]
  ASH1L ΔTm: −0.8 °C
[18]
  SMARCA2 ΔTm: 0.0 °C
[7]
  BRDT-BD1 ΔTm: 0.1 °C
[8]
  BRD4-BD2 ΔTm: −4.2 °C
[9]
  PCAF ΔTm: 0.1 °C
[10]
  BRD7 ΔTm: 0.0 °C
[12]
  BRD4-BD1 ΔTm: 0.6 °C
[13]
  TRIM33A ΔTm: 0.3 °C
[14]
  CECR2 ΔTm: 0.8 °C
[19]
  growth inhibition of PC3 cells: also inhibits the PC3, RWPE1, and HEK293T cells similarly
[20]
  growth inhibition of HEK293T cells: also inhibits the PC3, RWPE1, and HEK293T cells similarly
[21]
  growth inhibition of RWPE1 cells: also inhibits the PC3, RWPE1, and HEK293T cells similarly
